# Laboratory results taken from patent US20240327421A1 (Marquette University, priority 2017, published 2024).
# “Also recorded” adds a separate entry of the source.
# Key:
# [1] = target: T1, human ER Alpha ligand-binding domain (LBD) (Homo sapiens, UniProt P03372); assay: TR-FRET competitive binding assay, ERα LBD; settings: displacement of fluorescent tracer from ERα LBD
# T1 construct: purchased Thermo Fisher Scientific
# T1 sequence (P03372 311-547 limits assumed): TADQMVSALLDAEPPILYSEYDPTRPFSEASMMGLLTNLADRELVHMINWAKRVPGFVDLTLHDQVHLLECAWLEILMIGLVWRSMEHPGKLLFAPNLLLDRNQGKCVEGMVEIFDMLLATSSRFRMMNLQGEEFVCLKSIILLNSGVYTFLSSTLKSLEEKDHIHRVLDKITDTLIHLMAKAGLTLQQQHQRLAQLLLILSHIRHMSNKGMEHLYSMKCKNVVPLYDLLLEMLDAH
# Text: TR-FRET Assay. LanthaScreen® TR-FRET ER Alpha and Beta Competitive Binding Assay kits from Thermo Fisher Scientific were used to perform the TR-FRET assays. These included a terbium-labeled anti-GST antibody, a fluorescent small molecule ER Alpha or Beta ligand as a “tracer”, and a human ER Alpha or Beta ligand -binding domain (LBD) that is tagged with glutathione-S-transferase (GST) in a homogenous mix- and -read assay format.
# The TR-FRET assay employs a Tb-anti-GST antibody that binds to a GST tag, and a fluorescently labeled estrogen (tracer) binds in the active site pocket. The TR-FRET signal obtained decreases when competitor compounds displace the fluorescently labeled tracer. Assays were performed according to kit instructions. Briefly, 1:5 dilution series of compounds were made with DMSO, then diluted in assay buffer such that the highest concentration tested in the assay was 50 μM for ERβ and 50 μM for ERα and DMSO was 1%. […] TR-FRET signal was read on a SpectraMax M5 (Molecular Devices) set-up according to Thermo Fisher Scientific machine settings (excitation of 332 nm, emissions 518 nm and 488 nm with a 420 nm cutoff, 50 μs integration delay, 400 μs integration time, and 100 flashes per read). The TR-FRET ratio was calculated using the SoftmaxPro software by dividing the emission at 518 nm (fluorescein) by the emission at 488 nm (Terbium). […]
# CYP2C9 = target: T2, CYP2C9 (Homo sapiens, UniProt P11712); assay: P450-Glo CYP450 inhibition, CYP2C9; format: in vitro ADME; settings: highest concentration 62.6 μM
# T2 construct: purchased Promega Corporation (Madison, WI)
# T2 sequence (P11712 whole entry): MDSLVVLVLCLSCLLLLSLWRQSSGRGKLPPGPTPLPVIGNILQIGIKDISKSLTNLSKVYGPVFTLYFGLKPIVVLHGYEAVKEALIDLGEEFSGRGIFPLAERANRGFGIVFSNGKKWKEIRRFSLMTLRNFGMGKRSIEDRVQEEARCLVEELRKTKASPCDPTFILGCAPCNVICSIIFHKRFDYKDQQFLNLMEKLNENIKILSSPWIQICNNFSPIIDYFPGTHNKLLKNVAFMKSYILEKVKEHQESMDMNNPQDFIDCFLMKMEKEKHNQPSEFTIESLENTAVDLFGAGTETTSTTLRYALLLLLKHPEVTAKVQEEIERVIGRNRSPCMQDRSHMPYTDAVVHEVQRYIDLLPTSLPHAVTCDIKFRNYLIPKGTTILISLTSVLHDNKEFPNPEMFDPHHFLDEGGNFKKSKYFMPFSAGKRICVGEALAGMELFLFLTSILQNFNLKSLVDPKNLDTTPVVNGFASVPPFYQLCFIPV
# Procedure: (§1) In Vitro Druggability Assays-CYP450 Binding, hERG & Nephelometry. The P450-Glo™ Screening System from Promega Corporation (Madison, WI) was used to measure CYP450 (cytochrome P450) inhibition, as described in the kit instructions. Assays were run in 96-well white plates (Corning® 3912), and luminescence was measured on a SpectraMax M5 instrument (FIG. 6). The luminescence signal is proportional to the amount of luciferin product formed by the CYP reaction. Compounds were prepared in DMSO, then an eight-step 1:2 dilution series was made in DMSO. […] After adding the relevant Cytochrome P450 enzyme, the plate was incubated at 37° C. for 10 minutes to allow components to come to temperature. Next, the NADPH regeneration system was added to activate the reaction on a luminogenic P450-GloTM substrate, and incubated at 37° C. for 10-30 min, according to kit instructions for each CYP enzyme. The enzyme reaction was stopped by the addition of Luciferin Detection Reagent and luminescence of the plate was read in a Spectramax M5 (Molecular Devices) after a 20 min incubation at room temperature. Data were normalized to positive controls (α-naphthoflavone for CYP1A2, sulfaphenazole for CYP2C9, quinidine for CYP2D6, and ketoconazole for CYP3A4). Data analysis was with Prism software, as described above.
# CYP3A4 = target: T3, CYP3A4 (Homo sapiens, UniProt P08684); assay: P450-Glo CYP450 inhibition, CYP3A4; format: in vitro ADME; settings: highest concentration 62.6 μM
# T3 construct: purchased Promega Corporation (Madison, WI)
# T3 sequence (P08684 whole entry): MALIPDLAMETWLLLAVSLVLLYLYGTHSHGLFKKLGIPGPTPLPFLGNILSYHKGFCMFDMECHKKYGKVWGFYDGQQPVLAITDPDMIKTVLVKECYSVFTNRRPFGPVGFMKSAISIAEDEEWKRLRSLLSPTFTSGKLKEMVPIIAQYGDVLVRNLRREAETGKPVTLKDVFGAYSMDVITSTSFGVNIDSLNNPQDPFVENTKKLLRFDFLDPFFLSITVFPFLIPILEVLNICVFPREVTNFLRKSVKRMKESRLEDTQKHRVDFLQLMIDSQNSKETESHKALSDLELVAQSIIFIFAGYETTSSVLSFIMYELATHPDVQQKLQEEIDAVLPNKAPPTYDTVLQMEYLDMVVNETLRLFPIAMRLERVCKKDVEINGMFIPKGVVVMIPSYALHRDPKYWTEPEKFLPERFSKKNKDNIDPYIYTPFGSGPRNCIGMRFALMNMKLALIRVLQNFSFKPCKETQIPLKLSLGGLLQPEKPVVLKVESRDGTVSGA
# Procedure: as §1
# ovariectomized mice [2] = assay: Peripheral tissue pathology (H&E of liver, kidney, heart); format: in vivo; settings: 24 h after single IP injection; 0.5 or 5 mg/kg ISP358-2, 0.05 mg/kg DPN
# Procedure: Assessment of Potential Peripheral Pathology. To assess possible toxicity of ISP358-2 treatment to peripheral organs, ovariectomized mice received a single intraperitoneal injection of vehicle or ISP358-2, and liver, kidney, and heart tissues were collected 24 hours later. […] Tissues were fixed in 10% formalin buffered solution for 24 hours. Twenty specimens were processed and analyzed. Each specimen contained three pieces of tissue. The tissues from each animal was transferred to a labeled cassette and processed on an automated tissue processor following standard procedures. The tissues were then embedded in paraffin wax. No specific orientation of the tissue was performed. Four-micron sections were cut from each paraffin block and placed onto a slide. The slides were then stained using hematoxylin and cosin (H&E) on an automated stainer (FIGS. 13A-13L). The slides were then examined by a pathologist (ACM) who is board certified in anatomical pathology by the American Board of Pathology. All specimens contained three tissue samples corresponding to liver, kidney, and heart. In some instances, portions of adjacent tissues were also present. […] For heart, the myocytes and coronary vessels were examined, (2) evidence of inflammation was evaluated including hepatitis, glomerulonephritis, interstitial nephritis, and myocarditis, and (3) evidence of ischemic changes was examined. […]
# ovariectomized mice [3] = assay: Object recognition memory consolidation test
smiles,measurement,setting,value
OC[C@H]1CC[C@H](c2ccc(O)cc2)CC1 [Compound 16],IC50,[1],0.289 ± 0.092 µM
same,CYP2C9 inhibition,CYP2C9,no significant inhibition
same,IC50,CYP2C9,34 ± 4.7 µM
same,CYP3A4 inhibition,CYP3A4,no significant inhibition
same,IC50,CYP3A4,89 ± 18 µM
same,"histological abnormalities / peripheral toxicity in liver, kidney, heart",ovariectomized mice [2],unremarkable; also recorded: no obvious signs of peripheral toxicity; also recorded: Histological abnormalities were not detected
same,object recognition: time with novel object / memory consolidation,"ovariectomized mice [3]; IP injection, 0.5 mg/kg, listed as ISP358-2, 0.5 mg/kg",exhibited a significant preference for the novel object relative to chance; also recorded: most effectively enhanced consolidation; also recorded: enhanced memory consolidation
same,object recognition: time with novel object / memory consolidation,"ovariectomized mice [3]; IP injection, 5 mg/kg",somewhat of a trend for the 5 mg/kg ISP358-2 to prefer the novel object
same,object recognition: time with novel object / memory consolidation,"ovariectomized mice [3]; dorsal hippocampal infusion, 10 pg/hemisphere, tested 48 h after training, chance 15 s",Neither the vehicle nor 10 pg ISP358-2 groups showed a preference for the novel object
same,object recognition: time with novel object / memory consolidation,"ovariectomized mice [3]; dorsal hippocampal infusion, 100 pg/hemisphere, tested 48 h after training, listed as ISP358-2",spent significantly more time than chance with the novel object; also recorded: enhanced memory consolidation; also recorded: significantly increased time was spent
same,object recognition: time with novel object / memory consolidation,"ovariectomized mice [3]; dorsal hippocampal infusion, 1 ng/hemisphere, tested 48 h after training, listed as ISP358-2",spent significantly more time than chance with the novel object; also recorded: enhanced memory consolidation; also recorded: significantly increased time was spent
same,object recognition: time with novel object / memory consolidation,"ovariectomized mice [3]; oral gavage, 0.5 mg/kg, listed as ISP358-2, 0.5 mg/kg",spent significantly more time with the novel object relative to chance; also recorded: enhanced memory consolidation
same,object recognition: time with novel object / memory consolidation,"ovariectomized mice [3]; oral gavage, 5 mg/kg, listed as ISP358-2, 5 mg/kg",spent significantly more time with the novel object relative to chance; also recorded: most effective; also recorded: enhanced memory consolidation
